Source: BindingDB's records for patent US20230312571 (Fujian Akeylink Biotechnology, 2023)

Biological target: Replicase polyprotein 1a (Severe acute respiratory syndrome coronavirus 2, UniProt P0DTC1)
Assay: Evaluation of the in Vitro Anti-Novel Coronavirus Mpro Protease Activity
Procedure: The compound was dissolved in DMSO, and diluted in a 3-fold gradient with Echo655 according to the concentration requirements to 10 concentration points, and duplicate tests were set at each concentration, and the diluted solution was added to a 384-well plate. Mpro protein and substrate were diluted with test buffer (100 mM NaCl, 20 mM Tris-HCl, 1 mM EDTA), and Mpro protein was added to the 384-well test plate, incubated with the compound for 30 min at room temperature, and then the substrate was added thereto, and the test concentration of Mpro protein was 25 nM, and the test concentration of substrate was 25 µM. After incubating for 60 minutes in a 30° C. constant temperature incubator, the fluorescence signal value of Ex/Em=340 nm/490 nm was detected by microplate reader. At the same time, the background well containing the substrate and compound but not containing Mpro protein was detected as control.

Structure (SMILES): N#C[C@H](C[C@@H]1CCNC1=O)NC(=O)[C@@H]1[C@H]2CC[C@H](C2)N1C(=O)[C@@H](NC(=O)C(F)(F)F)C1CCCCC1 [US20230312571, Compound 2]
- IC50: 249 nM
